A word on the AUC(0-inf): it is the area under the concentration-time curve extrapolated to infinity. Broadly, the clearance is the volume of plasma or blood freed of the substance per unit of time. As a reminder, the Cmax is the maximum level reached in the sampled fluid or tissue. Usually Tmax stands for the time from dosing to the highest level. As usually defined, the bioavailability is dose-corrected exposure relative to a reference, in per cent. A word on the half-life: it is the time needed for the level to fall by half in the phase considered. For orientation: IC50 means the midpoint of a concentration-inhibition curve. For orientation: Papp A→B means how fast a substance crosses the layer from the apical side. A low value points to slow passage. For orientation: Papp B→A means the apparent permeability from the basolateral to the apical side of a cell layer.

Here are results for two compounds from patent US20240239763A1, “CRYSTAL FORM OF THIOPHENE DERIVATIVE AND PREPARATION METHOD THEREFOR” (DONGBAO PURPLE STAR (HANGZHOU) BIOPHARMACEUTICAL CO., LTD., priority 2021, published 2024).

A short description of data set [1]: Solid-state stability test of crystal form C. The data set is classed as physicochemical. The following applies: for Content / purity: crystal form C. How it is done:
They were separately placed under stability conditions of high temperature (60° C.), high humidity (25° C./92.5% humidity), combined high temperature and high humidity (40° C./75% humidity), and light exposure. For the sample placed under high temperature and high humidity, the bottle was sealed with aluminum foil, with small holes punctured in the aluminum foil to ensure that the samples could fully contact the ambient air; the sample placed under strong light exposure was sealed with a quartz glass cap. […] The samples placed under combined high temperature and high humidity (40° C./75% humidity) were taken for testing in the 1st, 2nd, and 3rd months (appearance, related substances, and content). The samples placed under light exposure conditions were taken for testing when the total illuminance reached 1.2×10^6 Lux•hr.

Data set [2] is described as follows: Hepatic metabolic stability (HMS) in human liver cells. As to conditions: hepatocytes (liver cells) in suspension, read-out: Hepatic intrinsic clearance rates. The data set is classed as in vitro ADME. How it is done: (§1) To test the metabolic stability of the test compound in human and rat liver cells.
(§2) 2.1 Test Compound (10 mM), controls: 7-Ethoxycoumarin (30 mM), 7-Hydroxycoumarin (control, 30 mM)
(§3) 1) A 30 mM solution was prepared by dissolving a precise amount of the positive control compound in dimethyl sulfoxide (DMSO).
(§4) 2) In a 96-well plate, the 10 mM test compound and 30 mM positive control compound were diluted to 1 mM and 3 mM, respectively, using DMSO.
(§5) 3) Acetonitrile was used to further dilute the 1 mM test compound and 3 mM positive control compound to quantification solutions with final concentrations of 100 μM and 300 μM, respectively.
(§6) 4) The stored cells were thawed, separated, and suspended in culture mediums. These cells were then diluted to a concentration of 0.5×10^6 cells/mL using pre-warmed culture mediums.
(§7) 5) In the 96-well plate, 198 μL of the pre-warmed cell suspension was added. […]
(§8) Through the following formula, the residual rates for the test compound and the control compound were calculated.
(§9) The elimination rate constant k for the test compound and control compound in hepatocytes was calculated by plotting the logarithm of the residual rate against time. The half-life (T1/2) and intrinsic clearance rate (CLint) were determined based on the elimination rate constant k. […]

Data set [3] is described as follows: Pharmacokinetics in SD rats in vivo. As to conditions: male, Sprague-Dawley, rat, plasma. As to the method: To test the pharmacokinetics of the compound in SD rats in vivo
Sprague Dawley rats (male, 180-350 g, 6 to 10 weeks of age, Beijing Vital River).
The solution was then filtered through a micropore membrane for later use. […] Six male SD rats were divided into two groups. […] In the second group, animals received a single oral gavage dose of the test compound at 10 mg/kg. […] Whole blood was centrifuged at 3200 g for 10 minutes at 4° C. to obtain plasma. The concentrations of the compound and uric acid (in the oral gavage group only) in the plasma were measured using the LC/MS/MS method. Pharmacokinetic parameters such as peak concentration, time to reach peak concentration, clearance rate, half-life, area under the curve, and bioavailability were calculated using Phoenix WinNonlin software.

Data set [4] concerns the target CYP3A4-M (Homo sapiens (Human), UniProt P08684). The data set is described as follows: Cytochrome P450 isoenzyme inhibition, human liver microsomes. Format: in vitro ADME. As to conditions: read-out: Cytochrome P450 isoenzymes IC50, CYP3A4-M. How it is done:
(§10) To determine the inhibitory activity of the test compound against different subtypes of human cytochrome P450 isoenzymes. Test compounds, standard inhibitors (at 100× final concentration), and mixed substrate working solutions were prepared; the microsomes (purchased from Corning Inc.) stored at −80° C. were taken out and thawed. To the corresponding wells were added 20 μL of the test compound and standard inhibitor solutions. Meanwhile, 20 μL of the respective solvent was added to the No Inhibitor Control (NIC) and blank control wells. Next, 20 μL of mixed substrate solution was added to the corresponding wells, except the blank wells where 20 μL of phosphate buffer (PB) was added. A human liver microsome solution was prepared (immediately returned to the fridge after the date of use was marked). Then, 158 μL of this solution was added to all the wells. The sample plate was placed in a 37° C. water bath for pre-incubation. A co-enzyme factor (NADPH) solution was then promptly prepared. After 10 minutes, 20 μL of NADPH solution was added to all wells. The sample plate was shaken to mix and placed back into a 37° C. water bath for an additional 10 minutes of incubation. At the respective time points, the reaction was terminated by adding 400 μL of cold acetonitrile solution (internal standard at 200 ng/ml of tolbutamide and labetalol). The sample plate was mixed thoroughly and was then centrifuged at 4000 rpm for 20 minutes to precipitate proteins. 200 μL of the supernatant was taken and mixed with 100 μL of water, after which it was sent for LC/MS/MS analysis.
Background: Liver microsomes are vesicles of endoplasmic reticulum, rich in cytochrome P450 enzymes.

Data set [5] concerns the target CYP2C9 (Homo sapiens (Human), UniProt P11712). The data set is described as above. Format: in vitro ADME. As to conditions: read-out: Cytochrome P450 isoenzymes IC50, CYP2C9. How it is done: as §10
Data set [6] concerns the target CYP2C19 (Homo sapiens (Human), UniProt P33261). The data set is described as above. The data set is classed as in vitro ADME. As to conditions: read-out: Cytochrome P450 isoenzymes IC50, CYP2C19. How it is done: as §10
In data set [7] the target is CYP2D6 (Homo sapiens (Human), UniProt P10635). The description is as above. The data set is classed as in vitro ADME. As to conditions: read-out: Cytochrome P450 isoenzymes IC50, CYP2D6. How it is done:
as §10

For data set [8], the system named is P-gp (human MDR1). The data set is described as follows: MDR1 membrane permeability test (bidirectional). The data set is classed as in vitro ADME, canine. As to conditions: dog, MDR1-MDCK II. As to the method:
MDR1-MDCK II cells are Madin-Darby canine kidney cells transfected with the human MDR1 gene, enabling stable high expression of P-gp. The purpose of the present study is to test the bidirectional permeability of the compound across the MDR1-MDCK II cell model and evaluate its potential for efflux transport.
MDR1-MDCK II cells (sourced from Piet Borst at the Netherlands Cancer Institute) were seeded on polyethylene terephthalate (PET) membranes in a 96-well insert system at a density of 2.5×10^5 cells/mL. The cells were cultured until they formed a confluent monolayer over 4-7 days.
Test compounds were diluted in transport buffer (HBSS containing 10 mM Hepes with DMSO, pH 7.4) to a concentration of 2 μM (DMSO<1%) and were applied to either the apical or basolateral side of the cell monolayer. […] Additionally, efflux ratios for each compound were measured, and both test and reference compounds were quantified, based on the peak area ratio of the analyte to IS by LC/MS/MS analysis. After the transport assay, the integrity of the cell monolayer was determined using a Lucifer Yellow exclusion assay. […] The relative fluorescence units (RFU) of […] were measured at 425/528 nm (excitation/emission) using an Envision microplate reader.
The apparent permeability coefficient (Papp, cm/s), efflux ratio, and recovery rate were calculated using the following formulas: […]

Data set [9] can be described thus: Hepatic metabolic stability (HMS) in rat liver cells. Format: in vitro ADME. As to conditions: hepatocytes (liver cells) in suspension, read-out: Hepatic intrinsic clearance rates. How it is done: as §1, §2, §3, §4, §5, §6, §7, §8, §9
Data set [10] can be described thus: Hygroscopicity study by dynamic vapor sorption (DVS). As to conditions: 25° C. and 80% RH. The data set is classed as physicochemical. As to the method: Instrument model: Intrinsic dynamic vapor sorption analyzer Test conditions: A sample (10 to 30 mg) is taken and placed in a DVS sample tray for testing.
Detailed parameters for DVS are as follows:
Equilibrium: dm/dt=0.002%/min (minimum: 10 minutes, maximum: 180 minutes)
RH (%) test increment range: 0% to 95% to 0%
DVS Intrinsic dynamic vapor sorption analyzer
in a DVS sample tray for testing.

Setting [11] is: 40° C., relative humidity of 75%, open-top, 1M.
Setting [12] is: 40° C., relative humidity of 75%, open-top, 2M.
The mark [13] stands for this setting: 40° C., relative humidity of 75%, open-top, 3M.
Setting [14] is: High humidity (25° C./relative humidity of 92.5%, open-top), 5 days.
Setting [15] is: High humidity (25° C./relative humidity of 92.5%, open-top), 10 days.
Setting [16] is: High humidity (25° C./relative humidity of 92.5%, open-top), 30 days.
The mark [17] stands for this setting: High temperature (60° C., open-top), 5 days.
Where [18] appears, read: High temperature (60° C., open-top), 10 days.
Where [19] appears, read: High temperature (60° C., open-top), 30 days.
Setting [20] is: Light exposure (total illuminance: 1.2 × 10^6 Lux · hr/near ultraviolet: 200 w · hr/m^2), 5 days.
Setting [21] is: Light exposure (total illuminance: 1.2 × 10^6 Lux · hr/near ultraviolet: 200 w · hr/m^2), 10 days.
Setting [22] is: 2.89 mg/kg, 2.89 mpk/intravenous injection.

Chain of CYP2D6 (P10635 whole entry): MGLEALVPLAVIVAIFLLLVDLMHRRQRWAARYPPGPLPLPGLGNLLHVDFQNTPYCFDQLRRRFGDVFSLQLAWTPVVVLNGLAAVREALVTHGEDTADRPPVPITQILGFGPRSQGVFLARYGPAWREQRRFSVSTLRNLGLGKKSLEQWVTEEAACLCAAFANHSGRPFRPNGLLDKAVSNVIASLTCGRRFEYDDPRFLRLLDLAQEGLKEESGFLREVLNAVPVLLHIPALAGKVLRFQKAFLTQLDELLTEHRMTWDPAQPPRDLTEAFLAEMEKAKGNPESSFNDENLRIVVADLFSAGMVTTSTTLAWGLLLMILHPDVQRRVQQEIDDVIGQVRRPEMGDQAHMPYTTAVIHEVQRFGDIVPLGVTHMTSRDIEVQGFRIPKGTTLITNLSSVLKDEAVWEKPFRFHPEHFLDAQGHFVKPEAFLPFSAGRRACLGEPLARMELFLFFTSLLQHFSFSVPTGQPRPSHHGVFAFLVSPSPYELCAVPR
Chain of CYP2C9 (P11712 whole entry): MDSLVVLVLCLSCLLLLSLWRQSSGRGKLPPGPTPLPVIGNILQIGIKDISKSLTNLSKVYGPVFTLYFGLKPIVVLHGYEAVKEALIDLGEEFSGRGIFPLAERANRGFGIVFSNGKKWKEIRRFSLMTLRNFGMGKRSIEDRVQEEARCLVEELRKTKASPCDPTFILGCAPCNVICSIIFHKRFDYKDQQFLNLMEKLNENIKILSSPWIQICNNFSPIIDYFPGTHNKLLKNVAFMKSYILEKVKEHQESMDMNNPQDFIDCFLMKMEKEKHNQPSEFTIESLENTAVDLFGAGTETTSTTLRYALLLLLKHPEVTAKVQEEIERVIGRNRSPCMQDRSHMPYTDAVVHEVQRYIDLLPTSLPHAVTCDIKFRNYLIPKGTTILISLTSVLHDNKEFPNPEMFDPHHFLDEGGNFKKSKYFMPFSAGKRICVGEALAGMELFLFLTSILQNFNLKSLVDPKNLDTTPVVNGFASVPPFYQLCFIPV
Chain of CYP2C19 (P33261 whole entry): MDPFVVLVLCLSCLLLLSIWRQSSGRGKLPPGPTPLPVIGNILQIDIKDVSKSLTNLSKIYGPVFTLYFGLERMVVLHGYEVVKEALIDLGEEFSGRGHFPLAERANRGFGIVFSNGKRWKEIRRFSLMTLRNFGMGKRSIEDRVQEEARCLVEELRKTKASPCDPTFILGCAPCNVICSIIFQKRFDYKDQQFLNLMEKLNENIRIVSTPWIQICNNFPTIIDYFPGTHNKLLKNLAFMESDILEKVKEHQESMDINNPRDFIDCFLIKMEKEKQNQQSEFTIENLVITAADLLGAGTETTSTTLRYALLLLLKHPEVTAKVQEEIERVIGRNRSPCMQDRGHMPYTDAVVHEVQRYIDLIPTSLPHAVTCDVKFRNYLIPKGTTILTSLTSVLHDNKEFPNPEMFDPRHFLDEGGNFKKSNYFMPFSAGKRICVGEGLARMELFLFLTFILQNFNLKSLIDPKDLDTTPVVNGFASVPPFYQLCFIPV
Chain of CYP3A4-M (P08684 whole entry): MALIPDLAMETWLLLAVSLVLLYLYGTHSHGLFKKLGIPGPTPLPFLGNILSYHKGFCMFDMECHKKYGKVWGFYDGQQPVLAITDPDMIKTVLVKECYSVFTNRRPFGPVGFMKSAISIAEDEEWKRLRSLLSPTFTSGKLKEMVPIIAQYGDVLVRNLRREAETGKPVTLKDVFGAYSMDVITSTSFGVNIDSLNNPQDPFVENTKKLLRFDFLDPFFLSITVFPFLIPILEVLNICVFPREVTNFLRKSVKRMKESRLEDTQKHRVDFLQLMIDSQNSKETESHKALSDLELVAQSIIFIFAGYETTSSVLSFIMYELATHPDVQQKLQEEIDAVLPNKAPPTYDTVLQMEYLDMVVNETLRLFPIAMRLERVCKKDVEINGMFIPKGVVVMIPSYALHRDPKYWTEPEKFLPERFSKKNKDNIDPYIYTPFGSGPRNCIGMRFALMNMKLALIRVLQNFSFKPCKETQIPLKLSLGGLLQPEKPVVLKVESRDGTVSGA

For `N#Cc1sc(-c2ccc(C(=O)O)c(O)c2)c2c1CCC(F)(F)C2` [Compound of formula (I)], the Content in data set [1] (0 days (initial)) is on record as 98.1%; in data set [1] (setting [11]) it was 97.8%; in data set [1] (setting [12]), 97.8%; in data set [1] (setting [13]), 97.8%; in [1] (setting [14]), 97.9%; in [1] (setting [15]) it was 97.9%. In addition, the Content was determined as 97.9% in [1] (setting [16]); 98.5% in data set [1] (setting [17]); 98.3% in data set [1] (setting [18]); 98.1% in [1] (setting [19]); 97.6% in data set [1] (setting [20]); 98.0% in [1] (setting [21]). In addition, the purity in [1] (0 days (initial)) stood at 98.84%; in data set [1] (setting [11]), 98.83%; in [1] (setting [12]) it was 99.02%; in data set [1] (setting [13]) it was 98.86%; in data set [1] (setting [14]) it was 98.90%; in data set [1] (setting [15]), 98.90%. The purity was 98.80% in data set [1] (setting [16]); 98.94% in data set [1] (setting [17]); 98.95% in data set [1] (setting [18]); 98.87% in data set [1] (setting [19]); 98.89% in data set [1] (setting [20]); 98.91% in data set [1] (setting [21]). Further, the CLint scaled at 1 µM in data set [2] was determined as 31.8 mL/min/kg; in data set [9], 188 mL/min/kg. Further, the AUC(0-inf) in data set [3] (setting [22]) was determined as 41.8 µM·h; in data set [3] (8.58 mg/kg, 8.58 mpk/oral), 86.6 µM·h. Also, the C0 in data set [3] (setting [22]) was 96.6 µM. In data set [3] (setting [22]), this compound displayed a clearance of 3.59 mL/min/kg. Besides, in data set [3] (2.89 mg/kg, 2.89 mpk/intravenous injection, read-out: Vdss), the Vd turned out to be 0.32 L/kg. In addition, the Cmax in [3] (8.58 mg/kg, 8.58 mpk/oral) worked out at 27.5 µM. In addition, in data set [3] (8.58 mg/kg, 8.58 mpk/oral), the Tmax worked out at 30 min. This compound showed a bioavailability in data set [3] (8.58 mg/kg, 8.58 mpk/oral) of 62.1%. This compound had a half-life in [3] (8.58 mg/kg, 8.58 mpk/oral) of 148 min. In addition, the IC50 was over 50 µM in data set [4], 18.1 µM in data set [5], over 50 µM in [6] and over 50 µM in [7]. Further, the Papp A→B at […], 2 µM in [8] (pH 7.4, A-to-B) was determined as 26.4 ×10⁻⁶ cm/s. In [8] (pH 7.4, B-to-A), this compound registered a Papp B→A at […], 2 µM of 6.63 ×10⁻⁶ cm/s.
In the case of `N#Cc1sc(-c2ccc(C(=O)O)c(O)c2)c2c1CCC(F)(F)C2` [crystal form C], the “solid-state stability (in words)” value in data set [1] (high temperature, high humidity, strong light exposure, and accelerated conditions) is “good stability”. In addition, in data set [10], the hygroscopicity classification result was “no hygroscopicity” and the “ΔW (hygroscopic weight gain)” value was 0.196%.
